According to patent US11957684B2, “Treatment of heavy menstrual bleeding associated with uterine fibroids” (Sumitomo Pharma Switzerland GmbH, priority 2016, dated 2024):
Several values for one entry are separate records, joined by “and”; a condition that tells them apart may be missing. Equal values may be shown once.

Legend:
FIG. 6A = assay: FIG. 6A
Protocol: Table printed on a drawing sheet, FIG. 6A
(§1) The patent's description of the figure: FIGS. 6A-C are tables of plasma PK parameters for Cohort 7 in accordance with Example 4.
First reader's note: Plasma PK parameters for the fed and fasted 40 mg arms; the table continues in FIGS. 6B-C on other sheets.

FIG. 12 = assay: FIG. 12
Text: Table printed on a drawing sheet, FIG. 12
The patent's description of the figure: FIG. 12 is a table of urine PK parameters for Cohorts 8 to 10 on Day 1 of the treatment period in accordance with Example 4.
First reader's note: Per the description these are urine PK parameters for Cohorts 8 to 10 on Day 1; each column is one dose group.

FIG. 6B = assay: FIG. 6B
Protocol: Table printed on a drawing sheet, FIG. 6B
as §1
First reader's note: Part of a plasma PK table series (FIGS. 6A-C) for Cohort 7; each column is a fed or fasted 40 mg arm.

FIG. 11 = assay: FIG. 11
Text: Table printed on a drawing sheet, FIG. 11
The patent's description of the figure: FIG. 11 is a table of plasma and urine PK parameters for Cohorts 8 to 10 on Days 1 and 14 of the treatment period in accordance with Example 4.
First reader's note: Each column is one dose cohort on one treatment day; the Min and Max rows give the range of the median Tmax, and 'nc' is not explained on the sheet.

women with endometriosis = assay: Example 8A: safety (adverse events, BMD, menstruation recovery); settings: for Change from Baseline in BMD, mean: Week 24
Text: Study participants were premenopausal (≥20 years) Japanese women with endometriosis (EM)-associated pain who completed a preceding 12-week study and were eligible to continue for an additional 12-week treatment were enrolled. The participants has confirmed normal regular menstrual cycles (25 to 38 days per cycle) and diagnosed to have EM and EM-related dysmenorrhea and pelvic pain of at least moderate severity as determined by the physician B&B scale. The primary endpoint was the safety including assessment of change in bone mineral density (BMD) using dual energy x-ray absorptiometry, adverse events, vital signs, weight, 12-lead electrocardiograms, and clinical laboratory tests.
The present extension study consisted of an additional treatment period of 12 weeks and a follow-up period of 4 weeks. Overall treatment duration was 24 weeks from the beginning of the preceding phase 2 study. Patients were assigned to the same treatment group as the preceding phase 2 study.

[1] = system: women with uterine fibroids; settings: in vivo
Protocol: The primary endpoint was the proportion of patients with a total Pictorial Blood Loss Assessment Chart (PBAC) score 4 of <10 from Week 6 to 12. Secondary endpoints included amenorrhea (PBAC score of 0), myoma and uterine volumes, hemoglobin (Hb), Numerical Rating Scale (NRS) score, Uterine Fibroid Symptom and Quality of Life (UFS-QOL) scores. Serum levels of luteinizing hormone (LH), follicle-stimulating hormone (FSH), estradiol (E2) and progesterone (P) were evaluated as pharmacodynamics endpoints. Safety endpoints included adverse events (AEs), vital signs, weight, 12-lead electrocardiogram (ECG), clinical laboratory tests, bone mineral density (BMD) and recovery of menstruation.
The bone mineral density (BMD) of the second to fourth lumbar vertebra (L2 to L4) was measured using dual X-ray absorptiometry (DXA).

[2] = Example 9 6-week phase 1 study with or without E2/NETA: pharmacokinetics; assay type: in vivo; settings: female, human, plasma, 40 mg; for half-life: plasma Compound 1 t1/2, mean (SD); for Tmax: plasma Compound 1 tmax, median (min, max)
Text: Methods: This was a 6-week phase 1, randomized, open-label, parallel-group, study conducted at 4 sites in the US. […] The first day of dosing occurred on Day 1 to 6 of the menstrual cycle. Hormonal preparations were prohibited for at least 3 months prior to screening. […] Vasomotor symptoms were captured using a daily diary (from screening until follow-up).

[3] = human, in vivo; cited from earlier work

## CONC(=O)Nc1ccc(-c2sc3c(c2CN(C)C)c(=O)n(-c2ccc(OC)nn2)c(=O)n3Cc2c(F)cccc2F)cc1 [Compound 1, N-(4-(1-(2,6-difluorobenzyl)-5-((dimethylamino)methyl)-3-(6-methoxy-3-pyridazinyl)-2,4-dioxo-1,2,3,4-tetrahydrothieno[2,3-d]pyrimidin-6-yl)phenyl)-N′-methoxyurea]
FIG. 6A
  AUC (O-inf) (ng*hr/mL) | Mean: 63.437 ng·h/mL and 125.275 ng·h/mL
  AUC (O-tlqc) (ng*hr/mL) | Mean: 55.792 ng·h/mL and 110.782 ng·h/mL
FIG. 12
  CLr (L/hr) | Mean: 7.1595 L/h and 6.7303 L/h and 7.7148 L/h
  Fe (%) | Mean: 0.639% and 0.938% and 1.209%
FIG. 6B
  Lambda_z (1/hr) | Mean: 0.04147 h⁻¹ and 0.04013 h⁻¹
  T1/2 (hr) | Mean: 16.9911 h and 17.6896 h
  Tmax (hr) | Median: 3.005 h and 3.980 h
FIG. 11
  Tmax (hr) | Median: 1.00 h
Women with endometriosis; 10 mg
  Menstruation Recovery Period, mean: 21 days
  Change from Baseline in BMD, mean: −1.6%
Women with endometriosis; 10 mg (N = 103)
  Any TEAEs: 89 N
  Headache: 5 N
  Hot flush: 12 N
  Hyperhidrosis: 4 N
  Menorrhagia: 11 N
  Menstruation Irregular: 21 N
  Metrorrhagia: 28 N
  Nasopharyngitis: 31 N
  Oligomenorrhea: 12 N
  Serious TEAEs: 0 N
  TEAEs Leading to Study Drug Discontinuation: 1 N
  TEAEs Related to Study Drug: 68 N
  TEAEs, Mild: 83 N
  TEAEs, Moderate: 6 N
  TEAEs, Severe: 0 N
Women with endometriosis; 20 mg
  Menstruation Recovery Period, mean: 26 days
  Change from Baseline in BMD, mean: −2.6%
Women with endometriosis; 20 mg (N = 100)
  Any TEAEs: 96 N
  Headache: 12 N
  Hot flush: 23 N
  Hyperhidrosis: 11 N
  Menorrhagia: 16 N
  Menstruation Irregular: 21 N
  Metrorrhagia: 36 N
  Nasopharyngitis: 31 N
  Oligomenorrhea: 12 N
  Serious TEAEs: 2 N
  TEAEs Leading to Study Drug Discontinuation: 7 N
  TEAEs Related to Study Drug: 88 N
  TEAEs, Mild: 82 N
  TEAEs, Moderate: 14 N
  TEAEs, Severe: 0 N
Women with endometriosis; 40 mg
  Menstruation Recovery Period, mean: 37 days
  Change from Baseline in BMD, mean: −4.9%
Women with endometriosis; 40 mg (N = 103)
  Any TEAEs: 98 N
  Headache: 11 N
  Hot flush: 55 N
  Hyperhidrosis: 10 N
  Menorrhagia: 15 N
  Menstruation Irregular: 7 N
  Metrorrhagia: 30 N
  Nasopharyngitis: 31 N
  Oligomenorrhea: 1 N
  Serious TEAEs: 0 N
  TEAEs Leading to Study Drug Discontinuation: 2 N
  TEAEs Related to Study Drug: 91 N
  TEAEs, Mild: 83 N
  TEAEs, Moderate: 15 N
  TEAEs, Severe: 0 N
[1]
  menstruation recovery period after the last dose: 20 to 35 days
[2]; Compound 1 AUC0-24, geometric mean (CV%), Week 6
  AUC(0-t): 116 ng·h/mL
[2]; Compound 1 Cmax, geometric mean (CV%), Week 6
  Cmax: 17.6 ng/mL
[2]; plasma Compound 1 AUC0-24, mean (SD), Week 3
  AUC(0-t): 133 ng·h/mL
[2]; plasma Compound 1 AUC0-24, mean (SD), Week 6
  AUC(0-t): 125 ng·h/mL
[2]; plasma Compound 1 Cavg, mean (SD), Week 3
  concentration at 3 week: 5.53 ng/mL
[2]; plasma Compound 1 Cavg, mean (SD), Week 6
  concentration at 6 week: 5.2 ng/mL
[2]; plasma Compound 1 Cmax, mean (SD), Week 3
  Cmax: 21.8 ng/mL
[2]; plasma Compound 1 Cmax, mean (SD), Week 6
  Cmax: 19.5 ng/mL
[2]; plasma Compound 1 Ctrough, mean (SD), Week 3
  concentration at 3 week: 2.57 ng/mL
[2]; plasma Compound 1 Ctrough, mean (SD), Week 6
  concentration at 6 week: 2.45 ng/mL
[2]; Week 3
  half-life: 16.7 h
  Tmax: 2.02 h
[2]; Week 6
  half-life: 17.1 h
  Tmax: 2 h

## CCNC(=O)[C@@H]1CCCN1C(=O)[C@H](CCCNC(=N)N)NC(=O)[C@H](CC(C)C)NC(=O)[C@@H](CC(C)C)NC(=O)[C@H](Cc1ccc(O)cc1)NC(=O)[C@H](CO)NC(=O)[C@H](Cc1c[nH]c2ccccc12)NC(=O)[C@H](Cc1c[nH]cn1)NC(=O)[C@@H]1CCC(=O)N1 [leuprolide acetate, reference compound]
[3]
  bone mineral density decrease: −2.21±1.709%
  women with a decrease of more than 5.0% in bone mineral density: 10 of 157
